According to PMC3723632, “A Multi-targeted Drug Candidate with Dual Anti-HIV and Anti-HSV Activity” (PLoS Pathogens, 2013):
Values after ≈ are worked out from the molar mass of the structure shown.

Key:
PBMC [1] = test: Chemokine mRNA expression (RT-PCR) in PBMC; assay type: cell-based, human; conditions: 100 µg/ml, 4 h
Experimental: Figure 9 Expression of CC-chemokines, CCR5 and chemokine mRNA expression in PBMC cultures after drug treatment. Panel A: Production of CC-chemokines by PBMC and the effects of adefovir, tenofovir, and PMEO-DAPym on the expression of the CCR5 receptor. Freshly isolated PBMCs from four healthy donors were incubated for 24 h with medium only (NC) or with adefovir, tenofovir, or PMEO-DAPym. We collected the supernatants and measured the concentrations of MIP-1α (▪), MIP-1β (▴), and RANTES (•) using a Bioplex system (Bio-Rad, Hercules, CA). Shown are means ± SEM. The cells were also collected, and the expression of the CCR5 receptor (□) was measured with flow cytometry using the PE-labeled CCR5 (clone 2D7) mAb; it is shown as percentage of control (± SEM) from four independent representative experiments. Panel B: Chemokine mRNA expression upon PMEO-DAPym exposure to PBMC. RT-PCR analysis of MIP-1α, MIP-1β, RANTES, and GAPDH (control) expression in PBMC treated with 100-µg/ml PMEO-DAPym for 4 h. Similar results were obtained with PBMC from three different donors. Results from one representative donor are shown.
We isolated total RNA from approximately 10^6 PBMC using the RNeasy Mini Kit (QIAGEN, Hilden, Germany). To eliminate potential genomic DNA contamination, the samples were treated with DNase I (Roche). […]

PBMC [2] = test: Flow cytometry of activation markers on PBMC; assay type: cell-based, human; conditions: 72 h exposure
Experimental: Figure 10 Expression of activation markers on PBMCs treated with adefovir, tenofovir, or PMEO-DAPym. PBMCs were incubated with adefovir, tenofovir, or PMEO-DAPym for 3 days. The mitogenic lectin PHA (at 2 µg/ml) was included as a positive control. We measured cell surface expression of CD4 and the activation markers CD69 (top panel), CD25 (middle panel), and HLA-DR (bottom panel) using flow cytometry with the […] CD4-specific mAb (clone SK3) and the phycoerythrin-labeled CD69, CD25, HLA-DR-specific mAbs. Shown are means ± SEM from two independent experiments.
PBMC were cultured in the presence of adefovir, tenofovir, and PMEO-DAPym and incubated at 37°C in a humidified, 5% CO2-controlled atmosphere. The expression of cellular activation markers was measured after 3 days of culture. […] Finally, the cells were washed with PBS, fixed with 1% formaldehyde solution, and analyzed with a FACSCalibur (BD Biosciences, San Jose, CA); data were acquired with CellQuest software and further analyzed with the FLOWJO software (Tree Star, San Carlos, CA). The expression of the chemokine receptors was measured after 24 h, and PBMC were incubated with PerCP-conjugated anti-CD4 mAb (clone SK3) in combination with APC-conjugated anti-CXCR4 mAb (clone 12G5) and PE-conjugated anti-CCR5 (clone 2D7) or anti-CXCR3 (clone 1C6). […]

CXCR4 or CXCR3 = test: Flow cytometry of CXCR4 and CXCR3 expression on PBMC; assay type: cell-based, human; conditions: data not shown
Experimental: PBMC were cultured in the presence of adefovir, tenofovir, and PMEO-DAPym and incubated at 37°C in a humidified, 5% CO2-controlled atmosphere. The expression of cellular activation markers was measured after 3 days of culture. Briefly, after washing the cells with PBS containing 2% FCS, we incubated them with PerCP-conjugated anti-CD4 mAb (clone SK3) in combination with PE-conjugated anti-CD25, anti-CD69, or anti-HLA-DR mAbs for 30 min at room temperature. For aspecific background staining, cells were stained in parallel with Simultest Control IgG γ1/γ2a and PerCP-conjugated mouse IgG1. Finally, the cells were washed with PBS, fixed with 1% formaldehyde solution, and analyzed with a FACSCalibur (BD Biosciences, San Jose, CA); data were acquired with CellQuest software and further analyzed with the FLOWJO software (Tree Star, San Carlos, CA). The expression of the chemokine receptors was measured after 24 h, and PBMC were incubated with PerCP-conjugated anti-CD4 mAb (clone SK3) in combination with APC-conjugated anti-CXCR4 mAb (clone 12G5) and PE-conjugated anti-CCR5 (clone 2D7) or anti-CXCR3 (clone 1C6). To evaluate the biological effects of the β-chemokines produced by drug-treated PBMC, freshly isolated PBMC were incubated for 1 h at 37°C with supernatants collected from PBMC cultures treated with compounds for 24 h. […]

HSV-1 (RV-174) = test: Virus yield reduction assay in HEL cells, HSV-1 clinical isolate; conditions: for EC90: Human alphaherpesvirus 1, HEL
Experimental: These assays were carried out in HEL cell monolayers at different times post infection. […] After 2 h at 37°C, the cells were washed and medium containing different concentrations of PMEO-DAPym (in duplicate) was added. Following 24, 48, and 72 h of incubation, we released the viruses by freeze-thawing and then titrated them using a plaque assay in HEL cells.

[3] = system: organotypic epithelial raft cultures of the PHKs; test: Histological examination of cell differentiation in raft cultures; conditions: highest tested concentration 50 µg/ml
Experimental: Primary human keratinocytes (PHKs) were seeded on top of collagen gels in 24-well microtiter plates and maintained submerged for 24–48 h. The collagen rafts were then raised and placed into stainless-steel grids at the interface between air and the liquid culture medium. The epithelial cells were allowed to stratify. Rafts were infected with 5,000 PFU of HSV-1KOS or HSV-2G at 10 days post lifting and treated with adefovir or PMEO-DAPym. Five days later, one series of rafts was fixed in 10% buffered formalin, embedded in paraffin, and stained with hematoxylin and eosin for histological evaluation.

HSV = system: HSV; design: method as in PMID 20643915, PMID 20709216; conditions: CAPRISA trial; cited from earlier work

Row | Structure (SMILES) | increase in MIP-1β and MIP-1α mRNA expression (PBMC [1]) | upregulation of cell activation markers (HLA-DR, CD25, CD69 and others) (PBMC [2]) | downregulation of CXCR4 or CXCR3 (CXCR4 or CXCR3) | EC90 (HSV-1 (RV-174); 24 h, RV-174, moi = 5x10^-3, 24 hours) | EC90 (HSV-1 (RV-174); 24 h, RV-174, moi = 5x10^-4, 24 hours) | EC90 (HSV-1 (RV-174); 48 h, RV-174, moi = 5x10^-3, 48 hours) | EC90 (HSV-1 (RV-174); 48 h, RV-174, moi = 5x10^-4, 48 hours) | EC90 (HSV-1 (RV-174); 72 h, RV-174, moi = 5x10^-3, 72 hours) | EC90 (HSV-1 (RV-174); 72 h, RV-174, moi = 5x10^-4, 72 hours) | EC99 (HSV-1 (RV-174); RV-174, moi = 5x10^-3, 24 hours) | EC99 (HSV-1 (RV-174); RV-174, moi = 5x10^-3, 48 hours) | EC99 (HSV-1 (RV-174); RV-174, moi = 5x10^-3, 72 hours) | EC99 (HSV-1 (RV-174); RV-174, moi = 5x10^-4, 24 hours) | EC99 (HSV-1 (RV-174); RV-174, moi = 5x10^-4, 48 hours) | EC99 (HSV-1 (RV-174); RV-174, moi = 5x10^-4, 72 hours) | effect on cell differentiation (histological examination) [3] | prevention of HSV infection (HSV)
1 | Nc1cc(OCCOCP(=O)(O)O)nc(N)n1 [PMEO-DAPym, 6-phosphonylmethoxyethoxy-2,4-diaminopyrimidine] | > 9 fold | none of the cell activation markers | No downregulation | < 1 µg/mL | 2.27 µg/mL (≈ 8.59 µM) | 1 µg/mL (≈ 3.79 µM) | < 1 µg/mL | 1 µg/mL (≈ 3.79 µM) | < 1 µg/mL | 3.81 µg/mL | 4.96 µg/mL | 3.92 µg/mL | 6.26 µg/mL | 2.74 µg/mL | 3.59 µg/mL | no effect on cell differentiation | –
2 | C[C@H](Cn1cnc2c(N)ncnc21)OCP(=O)(O)O [Tenofovir, 9-(2-phosphonylmethoxypropyl)adenine] | – | – | – | – | – | – | – | – | – | – | – | – | – | – | – | – | 51%
